Test results taken from ChEMBL document CHEMBL4715697, “Synthesis and biological activity of benzamide DNA minor groove binders” (2016).

What was measured:
Format in all cases: functional
Settings in all cases: read-out: Activity
U-251 = assay: Growth inhibition of human U-251 cells assessed as cell growth at 10 uM incubated for 48 hrs by sulforhodamine B assay relative to control
UACC-257 = assay: Growth inhibition of human UACC-257 cells assessed as cell growth at 10 uM incubated for 48 hrs by sulforhodamine B assay relative to control
MDA-MB-435 = assay: Growth inhibition of human MDA-MB-435 cells assessed as cell growth at 10 uM incubated for 48 hrs by sulforhodamine B assay relative to control
OVCAR-8 = assay: Growth inhibition of human OVCAR-8 cells assessed as cell growth at 10 uM incubated for 48 hrs by sulforhodamine B assay relative to control
SK-MEL-28 = assay: Growth inhibition of human SK-MEL-28 cells assessed as cell growth at 10 uM incubated for 48 hrs by sulforhodamine B assay relative to control
SK-OV-3 = assay: Growth inhibition of human SK-OV-3 cells assessed as cell growth at 10 uM incubated for 48 hrs by sulforhodamine B assay relative to control
UACC-62 = assay: Growth inhibition of human UACC-62 cells assessed as cell growth at 10 uM incubated for 48 hrs by sulforhodamine B assay relative to control
OVCAR-5 = assay: Growth inhibition of human OVCAR-5 cells assessed as cell growth at 10 uM incubated for 48 hrs by sulforhodamine B assay relative to control
HCT-116 = assay: Growth inhibition of human HCT-116 cells assessed as cell growth at 10 uM incubated for 48 hrs by sulforhodamine B assay relative to control
OVCAR-3 = assay: Growth inhibition of human OVCAR-3 cells assessed as cell growth at 10 uM incubated for 48 hrs by sulforhodamine B assay relative to control
SK-MEL-2 = assay: Growth inhibition of human SK-MEL-2 cells assessed as cell growth at 10 uM incubated for 48 hrs by sulforhodamine B assay relative to control
ACHN = assay: Growth inhibition of human ACHN cells assessed as cell growth at 10 uM incubated for 48 hrs by sulforhodamine B assay relative to control
NCI-H226 = assay: Growth inhibition of human NCI-H226 cells assessed as cell growth at 10 uM incubated for 48 hrs by sulforhodamine B assay relative to control
HCT-15 = assay: Growth inhibition of human HCT-15 cells assessed as cell growth at 10 uM incubated for 48 hrs by sulforhodamine B assay relative to control
IGROV-1 = assay: Growth inhibition of human IGROV-1 cells assessed as cell growth at 10 uM incubated for 48 hrs by sulforhodamine B assay relative to control
MDA-MB-231 = assay: Growth inhibition of human MDA-MB-231 cells assessed as cell growth at 10 uM incubated for 48 hrs by sulforhodamine B assay relative to control
K562 = assay: Growth inhibition of human K562 cells assessed as cell growth at 10 uM incubated for 48 hrs by sulforhodamine B assay relative to control
MOLT-4 = assay: Growth inhibition of human MOLT-4 cells assessed as cell growth at 10 uM incubated for 48 hrs by sulforhodamine B assay relative to control
M14 = assay: Growth inhibition of human M14 cells assessed as cell growth at 10 uM incubated for 48 hrs by sulforhodamine B assay relative to control
CCRF-CEM = assay: Growth inhibition of human CCRF-CEM cells assessed as cell growth at 10 uM incubated for 48 hrs by sulforhodamine B assay relative to control
RXF 393 = assay: Growth inhibition of human RXF 393 cells assessed as cell growth at 10 uM incubated for 48 hrs by sulforhodamine B assay relative to control
SK-MEL-5 = assay: Growth inhibition of human SK-MEL-5 cells assessed as cell growth at 10 uM incubated for 48 hrs by sulforhodamine B assay relative to control
UO-31 = assay: Growth inhibition of human UO-31 cells assessed as cell growth at 10 uM incubated for 48 hrs by sulforhodamine B assay relative to control
LOX IMVI = assay: Growth inhibition of human LOX IMVI cells assessed as cell growth at 10 uM incubated for 48 hrs by sulforhodamine B assay relative to control
COLO 205 = assay: Growth inhibition of human COLO 205 cells assessed as cell growth at 10 uM incubated for 48 hrs by sulforhodamine B assay relative to control
SW-620 = assay: Growth inhibition of human SW-620 cells assessed as cell growth at 10 uM incubated for 48 hrs by sulforhodamine B assay relative to control
PC-3 = assay: Growth inhibition of human PC-3 cells assessed as cell growth at 10 uM incubated for 48 hrs by sulforhodamine B assay relative to control
EKVX = assay: Growth inhibition of human EKVX cells assessed as cell growth at 10 uM incubated for 48 hrs by sulforhodamine B assay relative to control
DU-145 = assay: Growth inhibition of human DU-145 cells assessed as cell growth at 10 uM incubated for 48 hrs by sulforhodamine B assay relative to control
NCI-H23 = assay: Growth inhibition of human NCI-H23 cells assessed as cell growth at 10 uM incubated for 48 hrs by sulforhodamine B assay relative to control
HT-29 = assay: Growth inhibition of human HT-29 cells assessed as cell growth at 10 uM incubated for 48 hrs by sulforhodamine B assay relative to control
KM12 = assay: Growth inhibition of human KM12 cells assessed as cell growth at 10 uM incubated for 48 hrs by sulforhodamine B assay relative to control
HOP-62 = assay: Growth inhibition of human HOP-62 cells assessed as cell growth at 10 uM incubated for 48 hrs by sulforhodamine B assay relative to control
MDA-MB-468 = assay: Growth inhibition of human MDA-MB-468 cells assessed as cell growth at 10 uM incubated for 48 hrs by sulforhodamine B assay relative to control
SF-268 = assay: Growth inhibition of human SF-268 cells assessed as cell growth at 10 uM incubated for 48 hrs by sulforhodamine B assay relative to control
Malme-3M = assay: Growth inhibition of human Malme-3M cells assessed as cell growth at 10 uM incubated for 48 hrs by sulforhodamine B assay relative to control
786-0 = assay: Growth inhibition of human 786-0 cells assessed as cell growth at 10 uM incubated for 48 hrs by sulforhodamine B assay relative to control
SNB-19 = assay: Growth inhibition of human SNB-19 cells assessed as cell growth at 10 uM incubated for 48 hrs by sulforhodamine B assay relative to control
RPMI-8226 = assay: Growth inhibition of human RPMI-8226 cells assessed as cell growth at 10 uM incubated for 48 hrs by sulforhodamine B assay relative to control

Row | SMILES | growth at 10 µM (U-251) | growth at 10 µM (UACC-257) | growth at 10 µM (MDA-MB-435) | growth at 10 µM (OVCAR-8) | growth at 10 µM (SK-MEL-28) | growth at 10 µM (SK-OV-3) | growth at 10 µM (UACC-62) | growth at 10 µM (OVCAR-5) | growth at 10 µM (HCT-116) | growth at 10 µM (OVCAR-3) | growth at 10 µM (SK-MEL-2) | growth at 10 µM (ACHN) | growth at 10 µM (NCI-H226) | growth at 10 µM (HCT-15) | growth at 10 µM (IGROV-1) | growth at 10 µM (MDA-MB-231) | growth at 10 µM (MOLT-4) | growth at 10 µM (M14) | growth at 10 µM (CCRF-CEM) | growth at 10 µM (RXF 393) | further results
1 | CCN(CC)CC(=O)Nc1cccc(C(=O)Nc2cc(CO)cc(NC(C)=O)c2)c1 | 103% | 101% | 110% | 115% | 112% | 104% | 106% | 105% | 99.6% | 126% | 99.8% | 105% | 95.7% | 103% | 130% | 126% | 111% | 103% | 97.2% | 102% | growth at 10 µM (K562): 105%; growth at 10 µM (SK-MEL-5): 102%; growth at 10 µM (UO-31): 96.6%; growth at 10 µM (LOX IMVI): 98.7%; growth at 10 µM (COLO 205): 112%; growth at 10 µM (SW-620): 115%; growth at 10 µM (PC-3): 102%; growth at 10 µM (EKVX): 120%; growth at 10 µM (DU-145): 125%; growth at 10 µM (NCI-H23): 98.4%; growth at 10 µM (HT-29): 103%; growth at 10 µM (KM12): 110%; growth at 10 µM (HOP-62): 96.9%; growth at 10 µM (MDA-MB-468): 95.7%; growth at 10 µM (SF-268): 113%; growth at 10 µM (Malme-3M): 102%; growth at 10 µM (786-0): 98.7%; growth at 10 µM (SNB-19): 105%
2 | CCN(CC)CC(=O)Nc1ccc(C(=O)Nc2cc(CO)cc(NC(C)=O)c2)cc1 | 108% | 103% | 96.3% | 107% | 116% | 107% | 97% | 107% | 109% | 116% | 107% | 108% | 95.8% | 100% | 129% | 112% | 120% | 109% | 98.2% | 110% | growth at 10 µM (RPMI-8226): 126%; growth at 10 µM (SK-MEL-5): 103%; growth at 10 µM (UO-31): 97.8%; growth at 10 µM (LOX IMVI): 106%; growth at 10 µM (COLO 205): 118%; growth at 10 µM (SW-620): 109%; growth at 10 µM (PC-3): 116%; growth at 10 µM (EKVX): 104%; growth at 10 µM (DU-145): 119%; growth at 10 µM (NCI-H23): 104%; growth at 10 µM (HT-29): 110%; growth at 10 µM (KM12): 107%; growth at 10 µM (HOP-62): 101%; growth at 10 µM (MDA-MB-468): 99.4%; growth at 10 µM (SF-268): 107%; growth at 10 µM (Malme-3M): 103%; growth at 10 µM (786-0): 97.4%; growth at 10 µM (SNB-19): 98%
3 | CC(=O)Nc1cc(CCl)cc(NC(=O)c2ccc(C(=O)NCCCN(C)C)cc2)c1 | 103% | 102% | 105% | 111% | 107% | 107% | 114% | 97.5% | 103% | 106% | 102% | 105% | 105% | 104% | 136% | 139% | 105% | 107% | 103% | 116% | growth at 10 µM (K562): 106%; growth at 10 µM (SK-MEL-5): 108%; growth at 10 µM (UO-31): 103%; growth at 10 µM (LOX IMVI): 95.2%; growth at 10 µM (COLO 205): 111%; growth at 10 µM (SW-620): 108%; growth at 10 µM (PC-3): 109%; growth at 10 µM (EKVX): 101%; growth at 10 µM (DU-145): 112%; growth at 10 µM (NCI-H23): 97.8%; growth at 10 µM (HT-29): 103%; growth at 10 µM (KM12): 107%; growth at 10 µM (HOP-62): 106%; growth at 10 µM (MDA-MB-468): 92.9%; growth at 10 µM (SF-268): 106%; growth at 10 µM (Malme-3M): 109%; growth at 10 µM (786-0): 104%; growth at 10 µM (SNB-19): 117%
